Measurements from ChEMBL document CHEMBL1201862, “PubChem BioAssay data set” (2004).
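Step 1: Grow cells in 96-well plates. Step 2: Expose to compound for 48 hours at 5 concentrations. Step 3: Interpolate endpoints linearly; if unreached, use highest concentration. GI50 marks 50% less growth.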 Calls of active or inactive are those of the source. No stated cut-off is given here; in the data, active = GI50 up to about 1.1 µM and inactive = higher. *1 amine or outer side, *2 acyl side, *3 side chain or, on linkers, in order; H or OH if unused. Where a SMILES comes first, the peptide text is derived from it. Bridges are numbered along the chain shown (N, C = ends). [ ]: non-standard residue; d: D form. The star is where a group is joined. X36 = O=C(C(CCCCNO[*:3])N[*:1])[*:2]; Fmoc = O=C(OCC1c2ccccc2-c2ccccc21)*

Key:
Test in all cases: NCI-60 cell line screen, 48 h
[1] = test system: HCT-15
[2] = test system: CCRF-CEM
[3] = test system: HCT-116
[4] = test system: Hs-578T
[5] = test system: SNB-19
[6] = test system: UO-31
[7] = test system: ACHN
[8] = test system: TK-10
[9] = test system: MOLT-4
[10] = test system: OVCAR-4
[11] = test system: U-251
[12] = test system: BT-549
[13] = test system: EKVX
[14] = test system: NCI/ADR-RES
[15] = test system: SR
[16] = test system: COLO 205
[17] = test system: DU-145
[18] = test system: KM12

| Compound | GI50 [1] [µM] | GI50 [2] | GI50 [3] | GI50 [4] | GI50 [5] | GI50 [6] | GI50 [7] | GI50 [8] | GI50 [9] | GI50 [10] | GI50 [11] | GI50 [12] | GI50 [13] | GI50 [14] | GI50 [15] | GI50 [16] | GI50 [17] | GI50 [18] |
| --- | --- | --- | --- | --- | --- | --- | --- | --- | --- | --- | --- | --- | --- | --- | --- | --- | --- | --- |
| Cc1oc2nc(N(C)C)n3nnnc3c2c1C | > 100 | > 100 µM (inactive) | > 100 µM (inactive) | > 100 µM (inactive) | > 100 µM (inactive) | 30.3 µM (inactive) | 61.9 µM (inactive) | > 100 µM (inactive) | > 100 µM (inactive) | 48 µM (inactive) | > 100 µM (inactive) | 74.1 µM (inactive) | > 100 µM (inactive) | > 100 µM (inactive) | > 10 µM (inactive) | > 100 µM (inactive) | > 100 µM (inactive) | > 100 µM (inactive) |
| COc1ccc(OC)c2c1-c1nnnn1CCC2(C)C | > 100 | > 100 µM (inactive) | > 100 µM (inactive) | > 100 µM (inactive) | > 100 µM (inactive) | > 100 µM (inactive) | > 100 µM (inactive) | > 100 µM (inactive) | > 100 µM (inactive) | > 100 µM (inactive) | > 100 µM (inactive) | > 100 µM (inactive) | > 100 µM (inactive) | > 100 µM (inactive) | > 100 µM (inactive) | > 100 µM (inactive) | > 100 µM (inactive) | > 100 µM (inactive) |
| CCCNC(=O)c1cc(NC(=O)c2cc(NC(=O)/C=C/c3ccccc3)c(OC)c(OC)c2)c(OC)c(OC)c1 | 92.3 | > 100 µM (inactive) | 5.7 µM (inactive) | 1.92 µM (inactive) | 5.87 µM (inactive) | 5.6 µM (inactive) | 7.94 µM (inactive) | 14.8 µM (inactive) | > 100 µM (inactive) | 2.54 µM (inactive) | 4.11 µM (inactive) | 17.8 µM (inactive) | 15.8 µM (inactive) | 9.33 µM (inactive) | 48.9 µM (inactive) | > 100 µM (inactive) | 24.8 µM (inactive) | 8.28 µM (inactive) |
| NC(=O)CNC(=O)C1CCCN1C(=O)C1CCCCNOC(=O)CCC(NC(=O)OCC2c3ccccc3-c3ccccc32)C(=O)NC(Cc2c[nH]c3ccccc23)C(=O)N1 (stereo not given) (Fmoc-EW[X36]PG-NH2; ester 1-3; configuration not given here) | > 100 | > 100 µM (inactive) | > 100 µM (inactive) | > 100 µM (inactive) | > 100 µM (inactive) | 24.9 µM (inactive) | > 100 µM (inactive) | > 100 µM (inactive) | > 100 µM (inactive) | > 100 µM (inactive) | > 100 µM (inactive) | > 100 µM (inactive) | > 100 µM (inactive) | > 100 µM (inactive) | > 100 µM (inactive) | > 100 µM (inactive) | > 100 µM (inactive) | > 100 µM (inactive) |
| CCCN(C(=O)c1c(Cl)nnc(Cl)c1C(=O)c1cc(Cl)nnc1Cl)c1cc(Cl)nnc1Cl | 4.65 | 2.92 µM (inactive) | 6.87 µM (inactive) | 3.24 µM (inactive) | 27.8 µM (inactive) | 17 µM (inactive) | 12.9 µM (inactive) | 18 µM (inactive) | 3.36 µM (inactive) | 14.5 µM (inactive) | 16.2 µM (inactive) | 9.73 µM (inactive) | 12.7 µM (inactive) | 6.7 µM (inactive) | 3.08 µM (inactive) | 5.77 µM (inactive) | 7.91 µM (inactive) | 11.5 µM (inactive) |
| c1ccc([B-]2(c3ccccc3)NCCCO2)cc1 | 31.8 | 34.5 µM (inactive) | 35.8 µM (inactive) | 32.1 µM (inactive) | > 100 µM (inactive) | 20 µM (inactive) | 35.4 µM (inactive) | 43.2 µM (inactive) | 32.7 µM (inactive) | 67.9 µM (inactive) | > 100 µM (inactive) | 31.4 µM (inactive) | 97.5 µM (inactive) | 64.1 µM (inactive) | 44.9 µM (inactive) | 24.9 µM (inactive) | 72.3 µM (inactive) | 91.2 µM (inactive) |
| Cc1ccc(/N=C2/C(c3ccccc3)=C(SC3=C(c4ccccc4)/C(=N/c4ccc(C)cc4)c4ccccc43)c3ccccc32)cc1 | 17.7 | > 100 µM (inactive) | 20.9 µM (inactive) | 9.98 µM (inactive) | 6.31 µM (inactive) | 15.6 µM (inactive) | 3.38 µM (inactive) | 31.9 µM (inactive) | > 87.7 µM (inactive) | 4.09 µM (inactive) | 15.7 µM (inactive) | 23.7 µM (inactive) | 19.1 µM (inactive) | 22.1 µM (inactive) | > 100 µM (inactive) | > 100 µM (inactive) | 32.1 µM (inactive) | 39.4 µM (inactive) |
| CCOC(=O)COC1=Nc2cc(OC)c(OC)c3nc(Cl)cc(c23)C1=O | 2.34 | 0.299 µM (active) | 1.67 µM (inactive) | 2.77 µM (inactive) | 6.08 µM (inactive) | 1.84 µM (inactive) | 1.66 µM (inactive) | 1.96 µM (inactive) | 0.383 µM (active) | 1.67 µM (inactive) | 2.94 µM (inactive) | 1.95 µM (inactive) | 0.716 µM (active) | 2.97 µM (inactive) | 0.94 µM (active) | 1.92 µM (inactive) | 1.82 µM (inactive) | 14.8 µM (inactive) |
| COc1cc(O)c2c(O)c3c(=O)oc(C)cc3c(OC)c2c1 [PAEPALANTINE] | 28.3 | 21.4 µM (inactive) | 20.6 µM (inactive) | 29.6 µM (inactive) | 39.3 µM (inactive) | 31.8 µM (inactive) | 23.7 µM (inactive) | 29 µM (inactive) | 23 µM (inactive) | 14.7 µM (inactive) | 32.5 µM (inactive) | 34.8 µM (inactive) | 29.9 µM (inactive) | 19.6 µM (inactive) | 26.1 µM (inactive) | 19.2 µM (inactive) | 41.6 µM (inactive) | 27.5 µM (inactive) |
| C[C@]12CCC(=O)C=C1CC[C@@H]1[C@@H]2CC[C@]2(C)C(=O)/C(=C/c3ccncc3)C[C@@H]12 | 15.3 | 14.7 µM (inactive) | 10.6 µM (inactive) | 29.8 µM (inactive) | 13.2 µM (inactive) | 12.6 µM (inactive) | 14.8 µM (inactive) | 18.1 µM (inactive) | 16.4 µM (inactive) | 17.2 µM (inactive) | 12.4 µM (inactive) | 19.2 µM (inactive) | 14.6 µM (inactive) | 26.2 µM (inactive) | 4.75 µM (inactive) | 13.2 µM (inactive) | 14.5 µM (inactive) | 13.4 µM (inactive) |
| O=C(O)c1ccccc1-c1ccccc1C(=O)c1ccccc1 | > 100 | > 100 µM (inactive) | > 100 µM (inactive) | > 100 µM (inactive) | > 100 µM (inactive) | > 100 µM (inactive) | > 100 µM (inactive) | > 100 µM (inactive) | > 100 µM (inactive) | > 100 µM (inactive) | > 100 µM (inactive) | > 100 µM (inactive) | > 100 µM (inactive) | > 100 µM (inactive) | > 100 µM (inactive) | > 100 µM (inactive) | > 100 µM (inactive) | > 100 µM (inactive) |
| O=C1c2cccc3cccc(c23)C(=O)N1CCCNCCCCNCCCN1C(=O)c2cccc3cccc(c23)C1=O | 3.22 | < 0.01 µM (active) | 0.0738 µM (active) | 0.0401 µM (active) | 0.124 µM (active) | 2.26 µM (inactive) | 0.757 µM (active) | 1.57 µM (inactive) | < 0.01 µM (active) | 0.2 µM (active) | 0.0402 µM (active) | 1.25 µM (inactive) | 0.986 µM (active) | 14.5 µM (inactive) | < 0.01 µM (active) | 0.192 µM (active) | 0.0887 µM (active) | 0.108 µM (active) |
| Cc1ccc(O)c(C(=O)/C=C/c2ccccc2)c1 | > 100 | > 100 µM (inactive) | > 100 µM (inactive) | 78 µM (inactive) | > 100 µM (inactive) | > 100 µM (inactive) | > 100 µM (inactive) | > 100 µM (inactive) | 9.93 µM (inactive) | 78.9 µM (inactive) | > 100 µM (inactive) | > 100 µM (inactive) | > 100 µM (inactive) | 53.5 µM (inactive) | > 100 µM (inactive) | > 100 µM (inactive) | > 100 µM (inactive) | 1.37 µM (inactive) |
| COc1ccc(/C=C/C(=O)N[C@@H]2C(=O)N3[C@@H]2SC(C)(C)[C@@H]3C(=O)O)cc1OC | > 100 | > 100 µM (inactive) | > 100 µM (inactive) | > 100 µM (inactive) | > 100 µM (inactive) | > 100 µM (inactive) | > 100 µM (inactive) | > 100 µM (inactive) | > 100 µM (inactive) | > 100 µM (inactive) | > 100 µM (inactive) | > 100 µM (inactive) | > 100 µM (inactive) | > 100 µM (inactive) | > 100 µM (inactive) | > 100 µM (inactive) | > 100 µM (inactive) | > 100 µM (inactive) |
| CCC1=NC(N/N=C/c2ccco2)=N/C1=C\c1ccccc1O | 12.6 | 12.7 µM (inactive) | 23.7 µM (inactive) | 30.6 µM (inactive) | 47.9 µM (inactive) | 11.6 µM (inactive) | 21.9 µM (inactive) | 59.4 µM (inactive) | 25.2 µM (inactive) | 2.86 µM (inactive) | 56.4 µM (inactive) | 29.4 µM (inactive) | 26.7 µM (inactive) | 24.5 µM (inactive) | 48.4 µM (inactive) | 44.3 µM (inactive) | 55.6 µM (inactive) | 31.5 µM (inactive) |
